The structures appear in SMILES notation. Starred links: 1 amine or outer side, 2 acyl side, 3 side chain; linkers in the order of their positions; H or OH if unused. Non-standard residues stand in square brackets, D forms with d. Residues, ends and D or L forms follow the SMILES beside them. *: point of attachment. NH(4-phenylbutyl) = c1ccc(CCCCN*)cc1; X1 = C[C@H](N[*:1])C(=O)C(=O)[*:2]; NHPhenethyl = c1ccc(CCN*)cc1

In assay [1] the target is T1, Escherichia coli rhomboid GlpG (Escherichia coli, UniProt P09391).
T1 construct: made in house; host or cells: E. coli C41(DE3)
Description: in vitro GlpG inhibition assay with fluorogenic transmembrane peptide substrate (apparent IC50). It counts as biochemical. An excerpt:
To gain insight into these preferences and their possible interactions, we have generated tetra- and pentapeptidyl chloromethylketones (CMK or cmk henceforth) harboring amino acids preferred in positions P5 to P1 by the Escherichia coli rhomboid GlpG (GlpG henceforth), using the sequence background of the Providencia TatA ([Stevenson et al., 2007]), represented by the parent compound Ac-IATA-cmk. We measured the inhibitory properties of this series of compounds using a newly developed in vitro assay employing a fluorogenic transmembrane peptide substrate ([Ticha et al., 2017]) that faithfully represents a native rhomboid substrate.
Figure 1 The Potency of Substrate-Derived Inhibitors Can be Improved by Modifying the Amino acid Sequence of the P5 to P1 Region (A) The parent inhibitor Ac-IATA-cmk was modified by introducing strongly preferred amino acids ([Zoll et al., 2014]) into the P4, P3, P2, and P5 positions to yield the listed compounds. Their apparent IC50 values were measured with 1 hr preincubation using 10 μM fluorogenic substrate KSp35 and 0.05% (w/v) DDM. The reported values are best-fit means with SD representative of 2–3 measurements. (B) The sequence-optimized peptidyl chloromethylketones were soaked into the native crystals of GlpG and structures of the complexes were solved by X-ray diffraction (for statistics, see Table S1). […] Note that in the Ac-RVRHA-cmk structure (right), the side chain of the Arg residue in the P5 position of the inhibitor has not been modeled due to poor or missing electron density peaks. (C) Interactions of RVRHA-cmk with GlpG were analyzed by Ligplot+ ([Laskowski and Swindells, 2011]). Ligands are shown as thick sticks with carbons in green, proteins as thin sticks with carbons in gray, hydrogen bonds as yellow dashed lines, and amino acids involved in van der Waals contacts are highlighted as transparent surfaces. The inhibitor forms covalent bonds with S201 and H254 via the chloromethylketone warhead, and it hydrogen bonds with the backbone of residues 196–198 from the L3 loop and residues 248–250 from the L5 loop. van der Waals contacts with the inhibitor are formed by the residues from the L3 loop of GlpG, by S193 and Q189 from TMD3, and by F146 and M120 from the L1 loop that pack against the Val side chain of the P4 position of the inhibitor, as observed previously ([Zoll et al., 2014]). (D) The conformations of peptide inhibitors bound to the active site of GlpG were compared by performing structural alignment of the complexes of VRHAcmk (PDB: 5MT7), RVRHAcmk (PDB: 5MT8), IATAcmk (PDB: 4QO2), and VRMAcho (PDB: 5F5B) in PyMOL ([Schrodinger, 2012]). […] The backbone of the ligands in all complexes has virtually identical conformation with the exception of the distortion of the oxyanion by the chloromethylketone, and the biggest differences are found in the conformation of the P2 side chain, which is not surprising, because almost any side chain can be accommodated in this position ([Zoll et al., 2014]). TEXT PRINTED IN THE PICTURE: (A) AcIATAcmk: IC50 (μM): 213 | (A) AcVATAcmk: IC50 (μM): 450 | (A) AcIAHAcmk: IC50 (μM): 200 | (A) AcIRTAcmk: IC50 (μM): 84 | (A) AcVRHAcmk: IC50 (μM): 27 | (A) AcRVRHAcmk: IC50 (μM): 8
Figure 2 A Screen of Electrophilic Warheads for the Inhibition of Rhomboid Proteases The optimized parent sequence Ac-RVRHA was linked to electrophilic warheads commonly used for targeting serine proteases (reviewed in [Hedstrom, 2002], [Walker and Lynas, 2001]). The apparent IC50 values of the compounds were measured in 0.05% DDM using 10 μM substrate KSp35 ([Ticha et al., 2017]) with 1 hr preincubation. Given are the mean values of 2–3 measurements. […]

For a further assay, the target named is T2, endogenous GlpG (Escherichia coli, UniProt P09391).
T2 construct: E. coli expressing endogenous levels of GlpG; endogenous in cells; host or cells: E. coli K12 NR698 (permeabilised outer membrane)
In words: inhibition of endogenous GlpG in live E. coli (LacYTM2 substrate cleavage, western blot). It counts as cell-based. Conditions: live E. coli NR698, substrate MBP-FLAG-LacYTM2-Trx; read-out: IC50 In Vivo (GlpG). As for the experimental part: The substrate MBP-FLAG-LacYTM2-Trx ([Strisovsky et al., 2009]) was expressed in wild-type E. coli NR698 with genetically permeabilized outer membrane ([Ruiz et al., 2005]) in the presence of increasing concentrations of inhibitors as described in STAR Methods. Substrate cleavage was measured in cell lysates by immunoblotting for FLAG and quantified using near-infrared fluorescence. The reported in vivo IC50 values are best-fit means with SD representative of 2–3 measurements. DMSO, dimethylsulfoxide vehicle control; KO, E. coli glpG::tet. […] The substrate AmyESP-MBP-FLAG-LacYTM2-Trx-HA was expressed in Bacillus subtilis 168 (ydcA::neo, xdkE::AmyESP-MBP-LacYTM2-Trx(erm, lin)) (BS87) in the presence of increasing concentrations of inhibitors as described in STAR Methods. Substrate cleavage was detected in cell lysates by immunoblotting for FLAG and detection by near-infrared fluorescence. […] This treatment was necessary because the specific cleavage product could not be resolved sufficiently well from the non-specific bands to be integrated separately. DMSO, dimethylsulfoxide vehicle control; YqgP KO, Bacillus subtilis 168 (ydcA::neo, yqgP::tet, xdkE::AmyESP-MBP-LacYTM2-Trx(erm, lin)) (BS88).
For orientation: Immunoblotting shows a protein as a band on a membrane.

T2 sequence (P09391 whole entry): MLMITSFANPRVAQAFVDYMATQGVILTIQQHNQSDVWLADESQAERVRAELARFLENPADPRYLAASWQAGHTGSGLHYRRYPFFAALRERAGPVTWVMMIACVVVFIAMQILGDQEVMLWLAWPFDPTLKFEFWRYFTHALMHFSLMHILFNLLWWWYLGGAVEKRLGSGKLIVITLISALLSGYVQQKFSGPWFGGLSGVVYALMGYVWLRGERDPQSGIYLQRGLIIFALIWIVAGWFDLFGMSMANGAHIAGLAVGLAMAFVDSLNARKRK
T1 sequence (P09391 whole entry): as above

`CC(=O)N[C@@H](CCCNC(=N)N)C(=O)N[C@H](C(=O)N[C@@H](CCCNC(=N)N)C(=O)N[C@@H](Cc1c[nH]cn1)C(=O)N[C@@H](C)C(=O)C(=O)NCCc1ccccc1)C(C)C` [compound 9, Ac-RVRHA-CONH-phenylethyl] (Ac-RVRH[X1]-NHPhenethyl): the IC50 in assay [1] (1 hr preincubation, 10 μM fluorogenic substrate KSp35, 0.05% (w/v) DDM) was found to be 440 nM; at endogenous GlpG, 8.8 ± 0.4 nM.

On to `CC(=O)N[C@@H](CCCNC(=N)N)C(=O)N[C@H](C(=O)N[C@@H](CCCNC(=N)N)C(=O)N[C@@H](Cc1c[nH]cn1)C(=O)N[C@@H](C)C(=O)C(=O)NCCCCc1ccccc1)C(C)C` [compound 11, Ac-RVRHA-CONH-phenylbutyl] (Ac-RVRH[X1]-{NH(4-phenylbutyl)}), for which the “fold lower IC50 than the parent compound 1” value in assay [1] (ratio of apparent IC50 values) was “about 1,000 fold”. In addition, the IC50 at endogenous GlpG was found to be 2.7 ± 0.1 nM.

The term IC50 denotes the point on the concentration scale where inhibition reaches its midpoint.

For the origin of these results see article PMC5746060, “General and Modular Strategy for Designing Potent, Selective, and Pharmacologically Compliant Inhibitors of Rhomboid Proteases” (Cell Chemical Biology, 2017).
